Measured values taken from US12331041B2, “GLP-1 receptor agonists and uses thereof” (Pfizer Inc., priority 2018, dated 2025).
Counter-ions that a name gives are not always drawn.

Tests used:
human GLP-1R [1] = molecular target: T1, human GLP-1R (Homo sapiens, UniProt P43220, G168S); assay: CHO GLP-1R Clone H6 - Assay 1 (HTRF cAMP agonist assay); format: cell-based; settings: for EC50: CHO Clone H6, high GLP-1R density, cAMP, geometric mean; for Emax / Assay 1 Emax (%): CHO Clone H6, relative to saturating full agonist GLP-1 7-36 (1 μM), arithmetic mean
T1 construct: expressed in transfected cells
T1 sequence (P43220 24-463 G168S): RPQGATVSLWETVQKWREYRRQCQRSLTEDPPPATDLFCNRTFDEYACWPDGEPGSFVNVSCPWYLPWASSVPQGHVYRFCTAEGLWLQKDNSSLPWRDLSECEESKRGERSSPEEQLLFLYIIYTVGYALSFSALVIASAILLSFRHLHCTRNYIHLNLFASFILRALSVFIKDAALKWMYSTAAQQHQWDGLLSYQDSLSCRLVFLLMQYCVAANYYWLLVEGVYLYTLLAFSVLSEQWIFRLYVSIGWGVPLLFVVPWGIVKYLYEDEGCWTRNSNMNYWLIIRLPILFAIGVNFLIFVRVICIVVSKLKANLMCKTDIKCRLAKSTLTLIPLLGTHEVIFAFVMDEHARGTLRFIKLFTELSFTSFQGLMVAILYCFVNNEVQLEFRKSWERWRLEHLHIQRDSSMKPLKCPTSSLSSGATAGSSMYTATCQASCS
In short: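 CHO Clone H6 cells stably expressing human GLP-1R (G168S) were plated 48 h, then given compound for 30 min at 37° C in HBSS/0.1% BSA/HEPES with 100 μM IBMX and 1% DMSO. cAMP was measured by HTRF against a standard curve.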

human GLP-1R [2] = molecular target: T2, human GLP-1R (Homo sapiens, UniProt P43220, L260F); assay: CHO GLP-1R Clone C6 - Assay 2 (HTRF cAMP agonist assay); format: cell-based; settings: for EC50: CHO clone C6, low GLP-1R density, cAMP, geometric mean; for Emax / Assay 2 Emax (%): CHO clone C6, relative to saturating full agonist GLP-1 (1 μM), arithmetic mean
T2 construct: expressed in transfected cells; host or cells: CHO Flp-In T-REx, clonal line C6 (pcDNA5-FRT-TO)
T2 sequence (P43220 24-463 L260F): as the sequence (P43220 24-463 G168S) above, with S145G, L237F counted along it

Row | SMILES | EC50 (human GLP-1R [1]) [nM] | Emax (human GLP-1R [1]) [%] | EC50 (human GLP-1R [2]) [nM] | Emax (human GLP-1R [2]) [%] | Assay 1 Emax (%) (human GLP-1R [1]) | Assay 2 Emax (%) (human GLP-1R [2])
1 | O=C(O)c1ccc2nc(CN3CCC(c4cccnc4OCc4ccc(F)cc4F)CC3)n(C[C@@H]3CCO3)c2c1 [Example 12, ammonium 2-[(4-{2-[(2,4-difluorobenzyl)oxy]pyridin-3-yl}piperidin-1-yl)methyl]-1-[(2S)-oxetan-2-ylmethyl]-1H-benzimidazole-6-carboxylate] | 4.7 | 78 | 110 | 93 |  | 
2 | C[C@@H]1CN(Cc2nc3ccc(C(=O)O)cc3n2C[C@@H]2CCO2)[C@@H](C)CN1c1ccnc(OCc2ccc(Cl)cc2F)n1 [Example 76, ammonium 2-{[(2S,5R)-4-{2-[(4-chloro-2-fluorobenzyl)oxy]pyrimidin-4-yl}-2,5-dimethylpiperazin-1-yl]methyl}-1-[(2S)-oxetan-2-ylmethyl]-1H-benzimidazole-6-carboxylate] | 12 | 88 | 180 | 100 |  | 
3 | CCn1cncc1Cn1c(CN2CCC(c3cccnc3OCc3ccc(Cl)cc3F)CC2)nc2ccc(C(=O)O)cc21 [Example 3, 2-[(4-{2-[(4-chloro-2-fluorobenzyl)oxy]pyridin-3-yl}piperidin-1-yl)methyl]-1-[(1-ethyl-1H-imidazol-5-yl)methyl]-1H-benzimidazole-6-carboxylic acid, trifluoroacetate salt] | 0.58 | 79 | 9 | 88 |  | 
4 | COCCn1c(CN2CCC(c3cccnc3OCc3ccc(C#N)cc3F)CC2)nc2ccc(C(=O)O)cc21 [Example 9, 2-[(4-{2-[(4-cyano-2-fluorobenzyl)oxy]pyridin-3-yl}piperidin-1-yl)methyl]-1-(2-methoxyethyl)-1H-benzimidazole-6-carboxylic acid, trifluoroacetate salt] | 28 | 77 | 700 | 81 |  | 
5 | CCn1cncc1Cn1c(CN2CCC(c3nccnc3OCc3ccc(Cl)cc3F)CC2)nc2ccc(C(=O)O)cc21 [Example 20, 2-[(4-{3-[(4-chloro-2-fluorobenzyl)oxy]pyrazin-2-yl}piperidin-1-yl)methyl]-1-[(1-ethyl-1H-imidazol-5-yl)methyl]-1H-benzimidazole-6-carboxylic acid, trifluoroacetate salt] | 0.34 | 80 | 6.1 | 91 |  | 
6 | O=C(O)c1ccc2nc(CC3CCC(c4cccc(OCc5ccc(Cl)cc5F)n4)CC3)n(C[C@@H]3CCO3)c2c1 (single isomer, unassigned; isomer 2) [Example 80] | 12 | 98 | 160 | 100 |  | 
7 | O=C(O)c1ccc2nc(CN3CCC(c4ccnc(OCc5ccc(Cl)cc5F)n4)CC3)n(C[C@@H]3CCO3)c2n1 [Example 67, ammonium 2-[(4-{2-[(4-chloro-2-fluorobenzyl)oxy]pyrimidin-4-yl}piperidin-l-yl)methyl]-3-[(2S)-oxetan-2-ylmethyl]-3H-imidazo[4,5-b]pyridine-5-carboxylate] | 3.3 | 90 | 52 | 120 |  | 
8 | N#Cc1ccc(COc2nc(N3CCC4(CC3)CC4c3nc4ccc(C(=O)O)cc4n3C[C@@H]3CCO3)c(F)cc2F)c(F)c1 (mixture of isomers) [Example 56, Ammonium 2-(6-{6-[(4-cyano-2-fluorobenzyl)oxy]-3,5-difluoropyridin-2-yl}-6-azaspiro[2.5]oct-1-yl)-1-[(2S)-oxetan-2-ylmethyl]-1H-benzimidazole-6-carboxylate] | 0.38 | 80 | 4.2 | 90 |  | 
9 | Cn1c(C2CC23CCN(c2nc(OCc4ccc(C#N)cc4F)c(F)cc2F)CC3)nc2ccc(C(=O)O)cc21 (centres unmarked) [Example 59, 2-(6-{6-[(4-cyano-2-fluorobenzyl)oxy]-3,5-difluoropyridin-2-yl}-6-azaspiro[2.5]oct-1-yl)-1-methyl-1H-benzimidazole-6-carboxylic acid, trifluoroacetate salt] | 6.8 | 80 | 120 | 85 |  | 
10 | N#Cc1ccc(COc2ccc(F)c(N3CCC4(CC3)CC4c3nc4ccc(C(=O)O)cc4n3CC3CCO3)n2)c(F)c1 (single isomer, unassigned) [Example 55] | 0.33 |  | 5.8 |  | 83 | 82
11 | COCCn1c(CN2CCC(c3nccnc3OCc3ccc(Cl)cc3F)CC2)nc2ccc(C(=O)O)cc21 [Example 23, 2-[(4-{3-[(4-chloro-2-fluorobenzyl)oxy]pyrazin-2-yl}piperidin-1-yl)methyl]-1-(2-methoxyethyl)-1H-benzimidazole-6-carboxylic acid, hydrochloride salt] | 41 | 89 | 450 | 94 |  | 
12 | N#Cc1ccc(COc2cccc(N3CCC4(CC3)CC4c3nc4ccc(C(=O)O)cc4n3CC3CCO3)n2)c(F)c1 (single isomer, unassigned) [Example 36] | 0.48 |  | 15 |  | 83 | 90
13 | O=C(O)c1ccc2nc(CN3CCC(c4nccnc4OCc4ccc(Cl)cc4F)CC3)n(C[C@@H]3CCO3)c2c1 [Example 19, Ammonium 2-[(4-{3-[(4-chloro-2-fluorobenzyl)oxy]pyrazin-2-yl}piperidin-1-yl)methyl]-1-[(2S)-oxetan-2-ylmethyl]-1H-benzimidazole-6-carboxylate] | 5.3 | 90 | 42 | 94 |  | 
14 | O=C(O)c1ccc2nc(CN3CCC(c4cccnc4OCc4ccc(Cl)cc4F)CC3)n(Cc3ncco3)c2n1 [Example 7, 2-[(4-{2-[(4-chloro-2-fluorobenzyl)oxy]pyridin-3-yl}piperidin-1-yl)methyl]-3-(1,3-oxazol-2-ylmethyl)-3H-imidazo[4,5-b]pyridine-5-carboxylic acid, trifluoroacetate salt] | 8.9 | 81 | 190 | 81 |  | 
15 | O=C(O)c1ccc2nc(C3CC34CCN(c3ncc(F)c(OCc5ccc(Cl)cc5F)n3)CC4)n(CC3CCO3)c2c1 (single isomer, unassigned) [Example 51] | 470 |  | > 20000 |  | 71 | 
16 | N#Cc1ccc(COc2nc(N3CCC4(CC3)CC4c3nc4ccc(C(=O)O)cc4n3CC3CCO3)c(F)cc2F)c(F)c1 (single isomer, unassigned; ent-1) [Example 57] | 0.3 | 88 | 4.1 | 98 |  | 
17 | COCCn1c(CN2CCC(c3ccnc(OCc4ccc(Cl)cc4F)n3)CC2)nc2ccc(C(=O)O)cc21 [Example 65, 2-[(4-{2-[(4-chloro-2-fluorobenzyl)oxy]pyrimidin-4-yl}piperidin-1-yl)methyl]-1-(2-methoxyethyl)-1H-benzimidazole-6-carboxylic acid, hydrochloride salt] | 88 | 85 | 1700 | 110 |  | 
18 | C[C@H]1CN(c2nc(OCc3ccc(Cl)cc3F)ncc2F)CCN1Cc1nc2ccc(C(=O)O)cc2n1C[C@@H]1CCO1 [Example 69, Ammonium 2-{[(2S)-4-{2-[(4-chloro-2-fluorobenzyl)oxy]-5-fluoropyrimidin-4-yl}-2-methylpiperazin-1-yl]methyl}-1-[(2S)-oxetan-2-ylmethyl]-1H-benzimidazole-6-carboxylate] | 0.91 | 89 | 18 | 110 |  | 
